Values quoted from earlier work, collected in patent publication US20230066502A1, “PREDICTION METHOD FOR INDICATION OF AIMED DRUG OR EQUIVALENT SUBSTANCE OF DRUG, PREDICTION APPARATUS, AND PREDICTION PROGRAM” (KARYDO THERAPEUTIX, INC., priority 2020, published 2023).

Settings: for occurrence frequency of adverse event Blood glucose decreased / occurrence frequency of adverse event Sleep disorder: FIG. 3 example of training data, already reported adverse event-related information, cases of this adverse event / total adverse event cases for the drug; for occurrence frequency of adverse event Low blood sugar / occurrence frequency of adverse event sleepiness: FIG. 7 example of second training data calculated from FAERS adverse event data, maximum value 1

## OC[C@H]1O[C@@H](c2ccc(Cl)c(Cc3ccc(O[C@H]4CCOC4)cc3)c2)[C@H](O)[C@@H](O)[C@@H]1O [EMPA, empagliflozin]
  occurrence frequency of adverse event Blood glucose decreased: 0.141
  occurrence frequency of adverse event Sleep disorder: 0.007
  occurrence frequency of adverse event Low blood sugar: 0.12
  occurrence frequency of adverse event sleepiness: 0.01

## O=C1CCc2ccc(OCCCCN3CCN(c4cccc(Cl)c4Cl)CC3)cc2N1 [aripiprazole]
  occurrence frequency of adverse event Blood glucose decreased: 0.009
  occurrence frequency of adverse event Sleep disorder: 0.026
  occurrence frequency of adverse event Low blood sugar: 0.0
  occurrence frequency of adverse event sleepiness: 0.5
